Measurements taken from patent US12215106B2, “Pharmaceutical compounds and therapeutic methods” (RUTGERS, THE STATE UNIVERSITY OF NEW JERSEY, priority 2018, dated 2025).
Counter-ions that a name gives are not always drawn.

How the values were obtained:
Caco-2 cells = assay: Bi-directional Caco-2 transport assay; format: in vitro ADME; conditions: for Papp (A-B) / Papp (B-A) / Efflux Ratio (B-A/A-B): human, Caco-2, 90 min, 5 μM; for Papp (A-B) / Papp (B-A): pH 7.4; for P-gp substrate: Caco-2
Procedure: The objective of the study is to evaluate test compounds as substrates for efflux transporter using Caco-2 cell line. To assess the functionality of P-glycoprotein (P-gp), loperamide was run as a positive control (Apical and basolateral HBSS pH 7.4).
5 mM DMSO stock of test compounds and loperamide was diluted 1000-folds in HBSS having 0.1% DMSO to prepare concentrations of 5 μM.
Caco-2 cells were grown in DMEM (20% FBS) until 85-90% confluence. After attaining required confluence, cells were trypsinized and seeded into 24 well millcell plates at a density of 0.6×10^5 cells/insert. The plates were maintained for 21 days at 37° C. in CO2 incubator with change of medium every alternative day. Monolayer integrity was monitored by measuring Trans-epithelial electrical resistance (TEER) from day 15.
Caco-2 cell monolayer was washed twice with HBSS and incubated for 40 min in CO2 incubator. TEER values were measured and wells showing TEER values above 230 ohms·cm^2 were taken for experiments. The study was performed in loperamide and test compounds by adding 400 μL of loperamide prepared in HBSS in apical (A-B transport) followed by addition of 800 μL of HBSS on basal side and for B-A transport 800 μL of loperamide prepared in HBSS was dosed in basal followed by addition of 400 μL HBSS on apical side. At selected time points (0, 15, 30, 60 and 90 mins) an aliquot of 50 μL was collected from the receiver compartment for determination of test compound concentrations. The volume withdrawn was replaced immediately with HBSS buffer. TEER was measured at the end to the experiment to confirm any damage of monolayer while performing experiment. Those wells with TEER not meeting the criteria were excluded from the study.
A 50 μL of test compound samples collected at respective time points and submitted for LC-MS/MS analysis.
The apparent permeability (Papp) (A−B & B−A) of test compounds and positive control was calculated using the following formula: Papp=dQ/dt/A·Co where, dQ/dt=linear slope of test compound concentration in receptor chamber with time (0, 15, 30, 60 and 90 min) after correcting for dilution; A=area of the filter (0.7 cm^2); and Co=initial concentration of compound in the donor compartment.
Efflux ratio (RE) was calculated using the following equation: RE=PB/A/PA/B where PB/A and PA/B represent the apparent permeability of test compound from the basal to apical and apical to basal side of cell monolayer.
Recovery represents: (amount of the compound recovered from donor at end of incubation+cumulative amount of compound in acceptor at end of incubation+amount of the compound in cell lysate or assay well)/amount of compound in donor solution at time zero*100
Compounds are classified based on Papp values as follows:
A compound having efflux ratio of >2 is considered as having potential as a P-gp substrate.

in vitro [1] = format: in vitro ADME, mice; conditions: mouse; for recovery at 4 h, 5 µM: pH 7.4; for fraction unbound at 4 h, 5 μM: plasma
Procedure: (§1) The objective of this study was to evaluate protein binding test compounds in mice plasma. This was accomplished by spiking the test compounds at a concentration of 5 μM into mice plasma and dialyzing against buffer until equilibrium is achieved (4 hours). Analyte area ratios of the test compounds in plasma and buffer were determined to calculate unbound and bound percentages of compound to the plasma proteins.
(§2) Phosphate buffered saline pack (0.1 M sodium phosphate and 0.15 M sodium chloride, pH 7.2) was dissolved in 500 mL of deionized water and pH was adjusted to 7.4 with 0.5 N NaOH.
(§3) 1 mM stock solutions were prepared in DMSO and diluted 200-folds in mice plasma to prepare a concentration of 5 μM. The final DMSO concentration in plasma was 0.5%.
(§4) Rapid equilibrium dialysis was performed with a rapid equilibrium dialysis (RED) device containing dialysis membrane with a molecular weight cut-off of 8,000 Daltons. Each dialysis insert contains two chambers. The red chamber is for plasma while the white chamber is for buffer.
(§5) A 200 μL aliquot of warfarin and test compound at 5 (triplicates) were separately added to the plasma chamber and 350 μL of phosphate buffer saline (pH 7.4) was added to the buffer chamber of the inserts. After sealing the RED device with an adhesive film, dialysis was performed in incubator at 37° C. with shaking at 100 RPM for 4 hours.
(§6) A 50 μL aliquot of warfarin and test compounds were added to four 0.5 mL microfuse tubes. Two aliquots were frozen immediately (0 minute sample). The other two aliquots were incubated at 37° C. for 4 hours along with the RED device.
(§7) Following dialysis, an aliquot of 50 μL was removed from each well (both plasma and buffer side) and diluted with equal volume of opposite matrix (dialyzed with the other matrix) to nullify the matrix effect. Similarly, 50 μL of buffer was added to recovery and stability samples. An aliquot of 100 μL was submitted for LCMS/MS analysis.
(§8) A 25 μL aliquot of warfarin and test compounds were crashed with 100 μL of acetonitrile containing internal standard (glipizide) and vortexed for 5 minutes. The samples were centrifuged at 4000 RPM at 4° C. for 10 min and 100 μL of supernatant was submitted for LC-MS/MS analysis. Samples were monitored for parent compound in MRM mode using LC-MS/MS.
(§9) The peak area ratios (analyte versus internal standard) obtained were used to determine the fraction of compound bound to plasma proteins.

mice plasma = assay: in vitro; format: in vitro ADME; conditions: mouse, plasma, 4 h, 5 μM
Procedure: as §1, §2, §3, §4, §5, §6, §7, §8, §9

in vitro [2] = conditions: pH 7.4; for % Remaining at 60 min (Buffer) / % Remaining at 60 min (+NADPH) / % Remaining at 60 min (−NADPH) / Percentage turnover in MLM (percent remaining), 60 min: 1 h; for % Remaining at 60 min (Buffer) / CLh, int / Percentage turnover in MLM (percent remaining), 0 min / Percentage turnover in MLM (percent remaining), 5 min / Percentage turnover in MLM (percent remaining), 15 min / Percentage turnover in MLM (percent remaining), 30 min / % Remaining at 60 min (+NADPH) / % Remaining at 60 min (−NADPH) / Percentage turnover in MLM (percent remaining), 60 min / Metabolic stability in liver microsomes, compound remaining: 1 μM; for CLh, int / Percentage turnover in MLM (percent remaining), 0 min / Percentage turnover in MLM (percent remaining), 5 min / Percentage turnover in MLM (percent remaining), 15 min / Percentage turnover in MLM (percent remaining), 30 min / % Remaining at 60 min (+NADPH) / % Remaining at 60 min (−NADPH) / Percentage turnover in MLM (percent remaining), 60 min / Metabolic stability in liver microsomes, compound remaining / half-life at 1 μM: mouse; for Percentage turnover in MLM (percent remaining), 0 min / Percentage turnover in MLM (percent remaining), 5 min / Percentage turnover in MLM (percent remaining), 15 min / Percentage turnover in MLM (percent remaining), 30 min / % Remaining at 60 min (+NADPH) / % Remaining at 60 min (−NADPH) / Percentage turnover in MLM (percent remaining), 60 min / Metabolic stability in liver microsomes, compound remaining / half-life at 1 μM: microsomes; for Percentage turnover in MLM (percent remaining), 0 min: 0 h; for Percentage turnover in MLM (percent remaining), 15 min: 0.25 h; for Percentage turnover in MLM (percent remaining), 30 min: 0.5 h; for Metabolic stability in liver microsomes, compound remaining: 60 min
Procedure: The objective of the study was to evaluate the metabolic stability of test compounds in liver microsomes from mice (MLM). This was accomplished by incubating test compounds with microsomes and monitoring disappearance with time using LCMS/MS. Imipramine in MLM was run as positive control.
Potassium phosphate buffer (Kphos) was prepared by adding 0.647 g potassium phosphate monobasic (KH2PO4) and 3.527 g potassium phosphate dibasic (K2HPO4) to 400 mL of Milli-Q water. pH of the buffer was adjusted to 7.4 and volume was made up to 500 mL.
Stock solutions of test compounds were prepared in DMSO at a concentration of 1 mM.
From the above mix, 70 μL was added to individual wells of 96 well reaction plates and pre-incubated at 37° C. for 5 min. […] Reactions without NADPH and buffer controls (minus NADPH) at 0 minutes and 60 minutes were also incubated to rule out non-NADPH metabolism or chemical instability in the incubation buffer. All reactions were terminated using 100 μL of ice-cold acetonitrile containing internal standard (glipizide) at 0, 5, 15, 30 and 60 minutes.
Samples were monitored for parent compounds disappearance in MRM mode using LC-MS/MS.
The percent remaining of test compounds and positive control in each sample was determined by considering peak area ratio in the 0 minute sample as 100%.
In vitro intrinsic clearance (CL'int) (units in mL/min/kg) was also calculated.

| Compound | Papp (A-B) (Caco-2 cells) | Papp (B-A) (Caco-2 cells) | recovery at 4 h, 5 µM (in vitro [1]; Plasma) [%] | fraction unbound at 4 h, 5 μM (in vitro [1]; pH 7.4, % Bound Mean ± SD) | fraction unbound at 4 h, 5 μM (in vitro [1]; pH 7.4, % Bound R1) | fraction unbound at 4 h, 5 μM (in vitro [1]; pH 7.4, % Bound R2) | fraction unbound at 4 h, 5 μM (in vitro [1]; pH 7.4, % Bound R3) | fraction unbound at 4 h, 5 μM (in vitro [1]; pH 7.4, PPB at 4 h) | % compound remaining at 4 hrs (mice plasma) [%] | % Remaining at 60 min (Buffer) (in vitro [2]) [%] | CLh, int (in vitro [2]) [mL/min/kg] | Percentage turnover in MLM (percent remaining), 0 min (in vitro [2]) [%] | Percentage turnover in MLM (percent remaining), 5 min (in vitro [2]) [%] | Percentage turnover in MLM (percent remaining), 15 min (in vitro [2]) [%] | Percentage turnover in MLM (percent remaining), 30 min (in vitro [2]) [%] | % Remaining at 60 min (+NADPH) (in vitro [2]) [%] | % Remaining at 60 min (−NADPH) (in vitro [2]) [%] | Percentage turnover in MLM (percent remaining), 60 min (in vitro [2]) [%] | Metabolic stability in liver microsomes, compound remaining (in vitro [2]) [%] | half-life at 1 μM (in vitro [2]) [min] | also measured |
| --- | --- | --- | --- | --- | --- | --- | --- | --- | --- | --- | --- | --- | --- | --- | --- | --- | --- | --- | --- | --- | --- |
| [2H]C([2H])([2H])Oc1ccc(Nc2nc(-c3c(C)nc4ccccn34)cs2)cc1 [Compound 15, N-(4-(methoxy-d3)phenyl)-4-(2-methylimidazo[1,2-c]pyridin-3-yl)thiazol-2-amine hydrochloride] | 0.0 ± 0.0 10^−6 cm/sec | 0.0 ± 0.0 10^−6 cm/sec | 114 | 0.001 | 0.001 | 0.001 | 0.001 | 0.1 | 90 | 85 | 215 | 100 | 100 | 98 | 67 | 48 | 93 | 48 | < 50 | 52 |  |
| [2H]C1([2H])Oc2ccc(Nc3nc(-c4c(C)nc5ccccn45)cs3)cc2O1 [Compound 17, N-(benzo[d][1,3]dioxol-5-yl-2,2-d2)-4-(2-methylimidazo[1,2-c]pyridin-3-yl)thiazol-2-amine hydrochloride] |  |  |  | 0.006 | 0.008 | 0.004 | 0.005 | 0.25 | 75 | 101 | 953 | 100 | 91 | 56 | 20 | 3 | 81 | 3 | < 50 | 12 | P-gp substrate (Caco-2 cells): not P-gp substrate; Efflux Ratio (B-A/A-B) (Caco-2 cells): 1.3; recovery at 4 h, 5 µM (in vitro [1]): 124% |
| COc1c(F)cc(Nc2nc(-c3c(C)nc4ccccn34)cs2)cc1F [Compound 14, hydrochloride] | 0.0 ± 0.0 10^−6 cm/sec | 0.0 ± 0.0 10^−6 cm/sec |  | 0.003 | 0.002 | 0.003 | 0.002 | 0.24 | 76 | 66 | 550 | 100 | 88 | 62 | 36 | 13 | 33 | 13 | < 50 | 20 | recovery at 4 h, 5 µM (in vitro [1]): 124% |
| Cc1nc2ccccn2c1-c1csc(Nc2ccc3c(c2)OC(F)(F)O3)n1 [Compound 16, N-(2,2-difluorobenzo[d][1,3]dioxol-5-yl)-4-(2-methylimidazo[1,2-a]pyridin-3-yl)thiazol-2-amine hydrochloride] |  |  | 117 | 0.01 | 0.01 | 0.01 | 0.011 | 0.24 | 76 | 87 | 759 | 100 | 83 | 58 | 35 | 6 | 62 | 6 | < 50 | 15 | P-gp substrate (Caco-2 cells): not P-gp substrate; Efflux Ratio (B-A/A-B) (Caco-2 cells): 0.9 |
